The numbers were not newly measured in patent US9974743B2, “Device and method for delivery of a medicament” (Philip Morris Products S.A., priority 2009, dated 2018), which cites them from elsewhere.

The conditions of the series: 25° C.

In the case of `CN1CCCC1c1cccnc1` (stereo not shown) [Nicotine Control, Nicotine], the vapor pressure is listed as 0.04 mm Hg.
